Measurements: PMC4117758 (2014)

Key:
Test in all cases: Job plot, absorption and fluorescence
Details in all cases: 150 mM KCl; 10 mM Tris-HCl pH 7.4, 1 mM Na2EDTA, 400 ml/l PEG 200; 5 μM total
[1] = tested on: Hum21 (DNA, G4) GGGTTAGGGTTAGGGTTAGGG
[2] = tested on: Hum45 (DNA, G4) GGGTTAGGGTTAGGGTTAGGGTTAGGGTTAGGGTTAGGGTTAGGG
[3] = tested on: Hum51 (DNA, G4) GGGTTAGGGTTAGGGTTAGGGTTAGGGTTAGGGTTAGGGTTAGGGTTAGGG
[4] = tested on: Hum51-M1 (DNA, G4) GGGTTAGGGTTAGGGTTAGGGTTAGGGTTAGGGTTAGGGTTAGGGTGTGAG
[5] = tested on: Hum51-M2 (DNA, G4) GGGTTAGGGTTAGGGTTAGGGTTGAGTGTAGGGTTAGGGTTAGGGTTAGGG
[6] = tested on: Hum57 (DNA, G4) GGGTTAGGGTTAGGGTTAGGGTTAGGGTTAGGGTTAGGGTTAGGGTTAGGGTTAGGG
[7] = tested on: Hum57-M1 (DNA, G4) GGGTTAGGGTTAGGGTTAGGGTTAGGGTTAGGGTTAGGGTTAGGGTGTGAGTGTGAG
[8] = tested on: Hum57-M2 (DNA, G4) GGGTTAGGGTTAGGGTTAGGGTTGAGTGTAGGGTTAGGGTTAGGGTTAGGGTGTGAG
[9] = tested on: Hum57-M3 (DNA, G4) GGGTTAGGGTTAGGGTTAGGGTTGAGTGTGAGTGTAGGGTTAGGGTTAGGGTTAGGG
[10] = tested on: Hum63 (DNA, G4) GGGTTAGGGTTAGGGTTAGGGTTAGGGTTAGGGTTAGGGTTAGGGTTAGGGTTAGGGTTAGGG
[11] = tested on: Hum69 (DNA, G4) GGGTTAGGGTTAGGGTTAGGGTTAGGGTTAGGGTTAGGGTTAGGGTTAGGGTTAGGGTTAGGGTTAGGG

Measured: binding

C[N+]1(CCOc2ccc(-c3c4nc(c(-c5ccc(OCC[N+]6(C)CCCCC6)cc5)c5ccc([nH]5)c(-c5ccc(OCC[N+]6(C)CCCCC6)cc5)c5nc(c(-c6ccc(OCC[N+]7(C)CCCCC7)cc6)c6ccc3[nH]6)C=C5)C=C4)cc2)CCCCC1
yes: all assays above
